Assay: wn = mass fraction of the nth substance listed
Details: 101 kPa, Liquid

OCCO [1,2-ethanediol] + O
Details | mass density, 298.15 K [kg/m3] | mass density, 303.15 K [kg/m3] | mass density, 308.15 K [kg/m3] | mass density, 318.15 K [kg/m3] | viscosity, 298.15 K [mPa·s] | viscosity, 303.15 K [mPa·s] | viscosity, 308.15 K [mPa·s] | viscosity, 318.15 K [mPa·s]
w1 = 0.1 | 1009.49 | 1007.62 | 1005.57 | 1002.73 | 1.152 | 1.017 | 0.9078 | 0.7381
w1 = 0.2 | 1022.45 | 1020.98 | 1018.5 | 1014.28 | 1.469 | 1.306 | 1.149 | 0.9243
w1 = 0.3 | 1035.7 | 1034.05 | 1031.66 | 1026.73 | 1.903 | 1.657 | 1.462 | 1.164
w1 = 1 | – | 1104.47 | 1100.13 | 1092.15 | 18.64 | 13.86 | 11.66 | 7.453
